“Also recorded” adds a separate entry of the source. Read-outs that look alike come from different tables or passages of the source.

The source of these data is US9382330B2, “Pdia4, target of cytopiloyne derivatives, for tumor diagnosis and treatment” (ACADEMIA SINICA, priority 2010, dated 2016).

The target of data set [1] is T1, GST-Pdia4 (Homo sapiens, UniProt P13667).
T1 construct: made in house; host or cells: E. coli BL21 DE3 pLysS
T1 sequence (P13667 21-645): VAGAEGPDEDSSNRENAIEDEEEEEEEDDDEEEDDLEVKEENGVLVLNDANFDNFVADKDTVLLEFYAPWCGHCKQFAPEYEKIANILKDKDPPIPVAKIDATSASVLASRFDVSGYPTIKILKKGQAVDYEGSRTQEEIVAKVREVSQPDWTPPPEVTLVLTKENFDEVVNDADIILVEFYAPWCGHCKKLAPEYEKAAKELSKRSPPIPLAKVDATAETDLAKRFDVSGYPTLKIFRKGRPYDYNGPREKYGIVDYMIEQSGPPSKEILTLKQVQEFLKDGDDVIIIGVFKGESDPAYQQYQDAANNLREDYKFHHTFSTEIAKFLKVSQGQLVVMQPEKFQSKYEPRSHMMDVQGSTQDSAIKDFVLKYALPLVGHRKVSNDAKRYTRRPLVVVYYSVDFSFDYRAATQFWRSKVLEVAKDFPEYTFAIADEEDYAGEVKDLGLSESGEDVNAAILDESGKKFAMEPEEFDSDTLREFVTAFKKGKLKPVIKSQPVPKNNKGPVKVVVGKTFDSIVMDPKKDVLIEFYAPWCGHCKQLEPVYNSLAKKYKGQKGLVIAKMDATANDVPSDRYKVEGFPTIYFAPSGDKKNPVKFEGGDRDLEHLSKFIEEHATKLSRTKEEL
Kind of data set: Pull down assay of GST fusion proteins with BCP (avidin-POD blot). Format: binding. Conditions: 2-mercaptoethanol added to the incubation. On the procedure:
(§1) pGEX4T3-Hspa5, pGEX4T3-Pdia4, and pGEX4T3-TecSH3 were obtained by cloning human Hspa5 cDNA, human Pdia4 cDNA and the SH3 domain of mouse Tec cDNA to a pGEX4T3 vector, respectively. GST fusion proteins were purified from the bacterial host E. coli BL21 DE3 pLysS, which harbored the above constructs, according to the manufacturer's instructions (Amersham Biosciences, NJ, USA). Glutathione agarose bead-bound GST fusion proteins (0.15 μg) were incubated with DMSO vehicle or BCP (0.026 μg) for overnight. The proteins were separated by SDS-PAGE and blotted with avidin-POD. For competition assays, CP (0.16 μg (10-fold) and 0.81 μm (50-fold)) or CPA (0.09 μg (10-fold) and 0.45 μm (50-fold)) was added to the above incubation. For interference assay, 2-mercaptoethanol (2.2 mg) was added to the incubation. To test effect of CPA on disulfide isomerase activity of GST-Pdia4, reduced BPTI (0.39 μg) was incubated with redox buffer in the presence of vehicle, 5.64 μg GST-Pdia4 or 5.64 μg GST-Pdia4 plus CPA (0.33 μg). Enzymatic activity of GST-Pdia4, shown as fraction remaining (%), was determined by the conversion of the reduced BPTI into disulfide intermediates as described (Satoh, M., et al. (2005) Cell Stress Chap. 10(3), 211-220).

The target of data set [2] is T1, GST-Pdia4. Kind of data set: Competition assay for binding of GST-Pdia4 and BCP. Conditions: 10-fold and 50-fold excess. As to the method: as §1
The test system of data set [3] is Jurkat cells. Kind of data set: WST-1 assay (cell viability / growth inhibition). The format is cell-based, human. The note with it: WST-1, 24 hour incubation. As to the method:
WST-1 assays were performed to measure cell viability. Briefly, Jurkat cells (5×10^3) were grown in 100 μl per well. After 24 hour incubation with DMSO or CP derivatives, the cells were incubated with WST-1 at 37° C. for 30 minutes and characterized by 440 nm absorption. To stain BCP-bound proteins of Jurkat cells, 30 μM of DMSO, biotin and BCP was incubated with Jurkat cells for 24 hours, respectively. After washing, the cells underwent surface or intracellular staining with avidin-PE-TR (Caltag, Calif., USA), followed by fluorescence activated cell sorting (FACS) analysis. The FACS data were processed using FCS express 3.0 software (De Novo Inc, CA, USA).

Another data set relates to T cell. Conditions: cited from earlier work.
The subject of data set [4] is Jurkat cells. Description: AFSE cell proliferation assay (FACS). The format is cell-based, human. The note with it: low doses, up to 6 days. As to the method: (§2) FIGS. 1A-C Effect of cytopiloyne (CP) and cytopiloyne aglycone (CPA) on cell growth, death and proliferation. FIG. 1A-B are graphs showing effects of CP and CPA on growth and death of Jurkat cells. Jurkat cells were grown in RPMI medium in the presence of DMSO (−), CP and CPA at the indicated concentrations for 6 days. Numbers of living cells (FIG. 1A) and dead cells (FIG. 1B) were counted by using eosin Y and hematocytometer. Growth (%) is defined as 100% multiplied by the ratio of the living cell number with compound treatment to that with the control treatment. Death (%) is defined as 100% multiplied by the ratio of the dead cell number to a total of cells (both living and dead). FIG. 1C is a graph showing effect of CP and CPA on proliferation of Jurkat cells. Jurkat cells, which were already labeled with AFSE, were grown under the same condition as the Jurkat cells shown in FIGS. 1A-B. Mean fluorescent intensity (MFI) of the cells on days 0, 2, 4 and 6 were determined using FACS.
Jurkat cells were infected with different lentiviral particles 2 days prior to use. […] One aliquot was tested for cell growth for 6 days and the number of live and dead cells was calculated using eosin Y. Another aliquot was stained with AFSE, monitored for cell proliferation for 6 days and followed byFACS analysis. […] Tumor incidence, tumor size and survival rate of the tumor-bearing mice were scored.

The test system of data set [5] is Jurkat cells. Kind of data set: Cell growth and death by counting living and dead cells with eosin Y. Conditions: for Jurkat cell growth: indicated concentrations, 6 days. Format: cell-based. On the procedure:
as §2
Jurkat cells were infected with different lentiviral particles 2 days prior to use. The cells were divided into 3 aliquots. One aliquot was tested for cell growth for 6 days and the number of live and dead cells was calculated using eosin Y. Another aliquot was stained with AFSE, monitored for cell proliferation for 6 days and followed byFACS analysis. Another aliquot was pulsed with 5-bromo-2-deoxyuridine (BrdU) for 30 minutes and chased for 0 to 48 hours. The cells underwent intracellular staining with anti-BrdU antibody and FACS analysis. The other aliquot was tested for caspase activity. Caspase 3/7 fluorescent substrate was incubated with 1 μg of total lysate and caspase activity, shown in relative light unit (RLU), was measured with Victor V luminescence counter. To evaluate in vivo tumor growth, lentivirally infected Jurkat cells (1×10^6) were subcutaneously inoculated into scid/beige mice. Tumor incidence, tumor size and survival rate of the tumor-bearing mice were scored.

Data set [6] has as its target T1, GST-Pdia4. Kind of data set: Disulfide isomerase activity of GST-Pdia4 with reduced BPTI. The format is biochemical. The note with it: reduced BPTI substrate, redox buffer. On the procedure: as §1
Data set [7] concerns human umbilical vein endothelial cells. Conditions: cited from earlier work.
Data set [8] has as its target T1, GST-Pdia4. Description: MS/MS analysis of GST-Pdia4/CPA adduct. The note with it: 24 hours, LC/MS/MS. The format is binding. As to the method:
Band 1 were cut from the coomassie blue gel and subjected to in gel digestion. Briefly, the gel was dehydrated with acetonitrile, vacuum dried, and rehydrated with ammonium bicarbonate at 37° C. for 1 hour. After alkylation with iodoacetamide, the gel was suspended with 25 mM ammonium bicarbonate containing trypsin at 37° C. for 16 hours. Tryptic peptides were analyzed with LC-nanoESI-MS/MS system. Briefly, the peptides were trapped and desalted isocratically on an LC-Packings PepMap™ C18 μ-Precolumn™ Cartidge (300 μm i.d.×5 mm; Dionex, Calif., USA) for 2 minutes with 0.1% formic acid. The peptides were separated on a C18 capillary column (15 cm×75 μm i.d.) packed with 5 μm, Zorbax 300 SB C18 paticles (Micro-Tech Scientific, Calif., USA), eluted using a 40 minute fast gradient of 5% to 80% acetonitrile containing 0.1% formic acid and subjected to Micromass Q-TOF Ultima™ API mass spectrometer, equipped with an ESI source. After data acquisition, MS/MS spectra for the sample were combined and querred against non-redundant protein database using Mascot program (Matrix Science, MA, USA). For MS/MS analysis of GST-Pdia4 and GST-Pdia4/CPA adduct, GST-Pdia4 (200 μg) was incubated with DMSO or CPA (24 μg) for 24 hours. The proteins underwent LC/MS/MS analysis.

In data set [9] the test system is TS/A, mammary gland carcinoma. Description: Cell death of TS/A mammary gland carcinoma. The format is cell-based.
A further data set has as its system tumor cell. The note with it: cited from earlier work.

Turning to `OCCS` [2-mercaptoethanol], the “interference of GST-Pdia4/BCP interaction by reducing agent” value at GST-Pdia4 [1] is “significantly diminished the interplay of GST-Pdia4 and BCP”.

Turning to `CC#CC#CC#CC#CCCC(CO)O[C@@H]1O[C@H](CO)[C@@H](O)[C@H](O)[C@H]1O` (some centres unmarked) [CP, cytopiloyne], the “interference with interaction between BCP and GST-Pdia4” value at GST-Pdia4 [2] was “could interfere with the interaction between BCP and GST-Pdia4 at a dose-dependent manner”. Also, the “half maximal inhibitory concentration (IC50) for growth inhibition of Jurkat cells” value with Jurkat cells [3] turned out to be 52.8 µg/mL. Besides, the T cell proliferation entry in the data set with T cell is “showed an inhibition of T cell proliferation”. For the same compound, the Jurkat cell proliferation entry with Jurkat cells [4] was “significantly suppressed Jurkat cell proliferation”. In addition, in the data set on Jurkat cells [5], the “cytotoxicity at low doses” value is “did not show significant cytotocxicity” and the Jurkat cell growth result was “inhibited Jurkat cell growth in a dose-dependent manner”.

Take `CC#CC#CC#CC#CCCC(O)CO` (centres unmarked) [CPA, cytopiloyne aglycone]: the “disulfide isomerase activity of GST-Pdia4” value on GST-Pdia4 [6] is reported as “inhibited this activity”. The “interference with interaction between BCP and GST-Pdia4” value at GST-Pdia4 [2] was “could interfere with the interaction between BCP and GST-Pdia4 at a dose-dependent manner; also recorded: more effective for the interference than CP”. The “cell death of human umbilical vein endothelial cells” value in [7] is given as “promoted cell death”. Besides, the “half maximal inhibitory concentration (IC50) for growth inhibition of Jurkat cells” value in the data set on Jurkat cells [3] turned out to be 2.5 µg/mL. In addition, on GST-Pdia4 [8], the “covalent adduct of CPA on GST-Pdia4” value is on record as “adducted to two cysteine residues of the second CGHC motif of Pdia4”. Further, in the data set on Jurkat cells [4], the Jurkat cell proliferation entry was “significantly suppressed Jurkat cell proliferation”. The “cytotoxicity at low doses” value in the data set on Jurkat cells [5] (CPA from 0.7 to 1.3 μg/ml) is listed as “did not show significant cytotocxicity”. Besides, the Jurkat cell growth result with Jurkat cells [5] is listed as “inhibited Jurkat cell growth in a dose-dependent manner”. For the same compound, the “cell death of TS/A” value in [9] is “induce cell death”.

For the compound bacitricin, the tumor cell death entry in the data set with tumor cell is “cause tumor cell death”.
